Source: patent US20220168310A1, “INHIBITION OF ADENOVIRUS WITH FILOCICLOVIR” (Microbiotix, Inc., priority 2019, published 2022)
Entries after “also recorded” stand apart in the source; their conditions may differ.

Key:
[1] = tested on: Adenovirus 5 (AdV5); test: Cytopathic effects (CPE) reduction assay, AdV5 in HFF cells, 384-well; format: cell-based, human adenovirus
Procedure: Antiviral and cytotoxicity data were obtained in a series of three to five separate experiments for each virus to provide an accurate estimate of antiviral activity and statistical data. Each assay included positive and negative control compounds as well as infected and uninfected controls to ensure the integrity of the experiment.
The CPE reduction assays were performed in monolayers of human foreskin fibroblast (HFF) cells (5000/well) in 384-well plates in assay media consisting of MEM with Earle's salts, 2% FBS and standard concentrations of L-glutamine, penicillin and gentamycin. 5000 cells were seeded in 384-well microtiter plates and incubated at 37° C. in a humidified 5% CO2 incubator for 24 hours to allow for formation of confluent monolayers.
Cell monolayers were infected at a multiplicity of infection (MOI) of approximately 0.005 PFU/cell with virus strains including AdV5. […] Cytopathology was determined by the addition of CellTiter-Glo® reagent (Promega, Madison, Wis.).

[2] = tested on: adenovirus 6 (AdV6); test: CPE reduction assay, adenovirus 6; format: cell-based, human adenovirus
Procedure: Similar experiments were carried out with filociclovir against adenovirus 6, adenovirus 7, and adenovirus 8.

[3] = tested on: adenovirus 6 (AdV6); test: Neutral red survival assay, AdV6-infected A549 cells; format: cell-based, human adenovirus; settings: FIG. 2, A549 cells, 6 days post-infection
Excerpt: The neutral red cell cytotoxicity assay was used to detect cell viability or drug cytotoxicity. The principle of this assay is based on the detection of viable cells via the uptake of the dye neutral red. Neutral red is a eurhodin dye that stains lysosomes in viable cells. Viable cells can take up neutral red via active transport and incorporate the dye into their lysosomes, but non-viable cells are unable not take up this chromophore. Consequently, after washing, viable cells can release the incorporated dye under acidified-extracted conditions. The amount of released dye can be quantified and used to determine the total number of viable cells or drug cytotoxicity. As such, cytotoxicity is expressed as a concentration-dependent reduction of the uptake of neutral red after exposure to the compound under investigation.
The neutral red survival assays were carried out in a 96-well format. Briefly, A549 adenocarcinomic human alveolar basal epithelial cells were plated at a concentration of 6×10^3 cells per well one day prior to infection. AdV6 infections were carried out at 5×10^3 PFU per well (an estimated 0.5 PFU/cell at the time of infection). […] Filociclovir plates were read and the results were graphed using GraphPad Prism graphing and statistical software (GraphPad Software, San Diego, Calif.).

[4] = tested on: AdV6; test: Immunofluorescence assay (DBP and hexon staining), AdV6-infected A549 cells; format: cell-based, human adenovirus; settings: 27 hours post-infection
Procedure: Human A549 cells on glass coverslips in 6-well plates were infected at an MOI of 5 PFU/cell with either AdV5 or AdV6 or were mock-infected. After 1 hour, filociclovir was added to a final concentration of 0, 4, 10, or 40 μM. At 27 hours post-infection, the A549 cells were fixed in paraformaldehyde (3.7% in PBS) and permeabilized with methanol. Cells were stained for the Adenovirus DNA-binding protein and adenovirus hexon. DBP staining will be […] and uniform during early AdV infection (prior to AdV DNA replication). DBP associates with replication centers as the infection progresses. The replication centers are initially small “dots” (each dot results from one incoming AdV genome). The replication centers will expand and “multiply” as DNA replication takes place. The nuclei become enlarged and misshapen as infection progresses. AdV hexon, the most abundant component of the AdV viral capsid, is not expressed until after DNA replication is taking place and is therefore considered to be a “late” AdV protein.

[5] = tested on: Human AdV6; test: Low dose filociclovir against intravenously administered AdV6 in immunosuppressed hamsters (Example 6); settings: for AdV6-induced liver damage, serum transaminase (ALT) / AdV6 replication in the liver: 5 days post challenge; for AdV6 replication in the liver: TCID50
Procedure: Three dose levels were tested: 1, 3, and 10 mg/kg p.o. q.d.
All hamsters were immunosuppressed using cyclophosphamide (CP) administered intraperitoneally at a dose of 140 mg/kg, and then twice weekly at a dose of 100 mg/kg. Filociclovir in powdered form was suspended in 0.4% carboxymethyl cellulose (Sigma C5678) at 0.1, 0.3, and 1.0 mg/ml and sonicated to visual homogeneity. Filociclovir was made up once weekly, aliquoted into daily portions, and stored at 4° C. Aliquots were allowed to equilibrate to room temperature before dosing.
Hamsters were distributed into 7 groups, 15 hamsters/group (see Table 4), immunosuppressed as described above, and injected i.v. with vehicle (Groups 1-2) or 4×10^10 PFU/kg of AdV6 (Groups 3-7). Groups 1 and 3 received drug vehicle (p.o. q.d.), Groups 2 and 6 received 10 mg/kg filociclovir (p.o. q.d.), Group 4 received 3 mg/kg filociclovir (p.o. q.d.), Group 5 received 1 mg/kg filociclovir (p.o. q.d.), and Group 7 received cidofovir (one dose of 37 mg/kg, followed by 20 mg/kg doses 3 times weekly). For all groups, drug administration started 1 day before challenge, and continued according to the schedule above for the duration of the study.
The body weights and any signs of morbidity of the animals were monitored and recorded daily. At 5 days post challenge, 5 hamsters (designated at the start of the experiment) from each group were sacrificed, and gross pathological observation was performed. Serum and liver were collected and virus burden in liver was determined by TCID50 assay and the serum was analyzed for transaminase levels. The remaining 10 hamsters were sacrificed at 14 days post challenge. Hamsters that became moribund before Day 14 were sacrificed as needed. In addition to the animals judged moribund by observation, we sacrificed all hamsters that lost more than 20% of their original body weight. For all animals, liver tissue was preserved in formalin for histopathological examination.

[6] = tested on: AdV6; test: Delayed treatment with 10 mg/kg filociclovir after AdV6 challenge in immunosuppressed hamsters (Example 7); format: in vivo, Syrian hamsters
Procedure: Aliquots are allowed to equilibrate to room temperature before dosing.
Hamsters were distributed into 8 groups, 15 hamsters each (Table 5), immunosuppressed as described above, and then injected i.v. with vehicle or 4×10^10 plaque forming units (PFU) of AdV6 per kg. Filociclovir was administered p.o. at 10 mg/kg q.d., starting at one day before, or 1, 2, 3, or 4 days after AdV6 injection.
Body weights and any signs of morbidity in the hamsters were recorded daily. At 7 days post challenge, 5 hamsters from each group (designated at the start of the experiment) were sacrificed, and gross pathological observations were performed.

[7] = 10 mg/kg q.d., listed as filociclovir

## Nc1nc2c(ncn2/C=C2/CC2(CO)CO)c(=O)[nH]1 [FCV, 2-amino-9-{(Z)-[2,2-bis(hydroxymethyl)cyclopropylidene]methyl}-3,9-dihydro-6H-purin-6-one]
[1]; FIG. 1, AdV5
  concentration as low as which is effective to reduce AdV replication: 0.2 µM
[1]; Human mastadenovirus C, AdV5, HFF cells, 384 well CPE, average and SD from five independent experiments, read-out: EC50
  EC50: 2200 ± 400 nM
[2]
  CC50/EC50: 27
[2]; Human mastadenovirus C, unit not given in Table 2 (Table 1 in μM)
  EC50: 3.67 µM
[3]
  concentration as low as which is effective to improve viability of AdV6 infected cells: 10^−1 μM
[4]; AdV6, 4 μM
  hexon-positive cells: Some hexon-positive cells
[4]; AdV6, 10 μM
  hexon-positive cells: extremely few hexon-positive cells
[4]; AdV6, 40 μM
  hexon-positive cells: No hexon-positive cells
[5]; 1 mg/kg p.o. q.d., p=0.0449
  mortality: moderate yet significant
[5]; 1 mg/kg q.d., listed as Filociclovir
  AdV6-induced liver damage, serum transaminase (ALT): ineffective
[5]; 1 mg/kg q.d., listed as filociclovir
  AdV6-induced liver damage, serum transaminase (ALT): largely ineffective
[5]; 1 mg/kg, listed as Filociclovir
  body weight loss: not efficacious
[5]; 1 mg/kg, listed as filociclovir
  body weight loss: unable to mitigate weight loss
[5]; 3 mg/kg q.d. p.o.
  mortality: completely prevented mortality
[5]; 3 mg/kg q.d. p.o., listed as filociclovir
  AdV6 replication in the liver: suppressed virus replication to an intermediate level; also recorded: inhibits AdV6 replication in the liver
[5]; 3 mg/kg, p=0.0419, listed as Filociclovir
  AdV6-induced liver damage, serum transaminase (ALT): mitigated the pathology
[5]; 3 mg/kg, p=0.0419, listed as filociclovir
  AdV6-induced liver damage, serum transaminase (ALT): moderate yet significant effect
[5]; 3 mg/kg, listed as Filociclovir
  body weight loss: moderately efficacious
[5]; 3 mg/kg, listed as filociclovir
  body weight loss: partially reversed
[5]; 10 mg/kg q.d. p.o.
  mortality: completely prevented mortality
[5]; [7]
  AdV6 replication in the liver: inhibits AdV6 replication in the liver
  AdV6-induced liver damage, serum transaminase (ALT): prevented AdV6-induced liver damage
[5]; 10 mg/kg q.d., listed as Filociclovir
  AdV6-induced liver damage, serum transaminase (ALT): mitigated the pathology
[5]; 10 mg/kg, uninfected
  body weight of uninfected hamsters: did not result in body weight loss
[5]; 10 mg/kg, listed as Filociclovir
  body weight loss: completely prevented body weight loss
[5]; 10 mg/kg, listed as filociclovir
  body weight loss: completely reversed
[5]; 1, 3, 10 mg/kg p.o. q.d.
  toxic effects in treated hamsters: No toxic effects were observed
[5]; AdV6+1 mg/kg group (9 in AdV6+Vehicle)
  treatment-related deaths: 5
[5]; AdV6+1 mg/kg, Day 5 sacrifice (4 in AdV6+Vehicle)
  hamsters with mottled liver and enlarged gall bladder: 3
[6]; 10 mg/kg p.o. q.d. started day −1, +1, +2, +3 (p=0.0005) or +4 (p=0.0023) vs AdV6+Vehicle, listed as filociclovir
  morbidity and mortality (survival): efficacious; also recorded: effective to prevent morbidity and mortality
[6]; 10 mg/kg p.o. q.d., up to 4 days post-infection
  prevention of pathology caused by intravenous AdV6 infection: safe and effective
[6]; 10 mg/kg, start 4 days post challenge
  AdV6 replication in the liver: inhibits AdV6 replication in the liver
[6]; 10 mg/kg, start up to 4 days post challenge, day +4 p=0.1452
  liver pathology, transaminase (ALT) levels: mitigates liver pathology
